Common to all, as to assay type: in vivo, human
For data set [1], the system named is Cushing's syndrome patients. In words: 24-hr Urinary Free Cortisol, Group 1, 12 week ascending-dose relacorilant study. As to conditions: for change in cortisol levels: Cushing's syndrome patients, Groups 1 and 2 (Tables 1 and 2); for Mean 24-hr UFC: Group 1, baseline 215.6. An excerpt:
(§1) Cortisol levels can be measured in a biological sample, such as saliva, urine, whole blood, serum, plasma, or any other biological fluid taken from a patient suffering from Cushing's syndrome. Such samples are typically analyzed in vitro. In some cases, the same sample is used to measure cortisol level and ACTH level. In other cases, different samples are used to measure cortisol and ACTH levels. For example, cortisol levels can be measured in saliva or urine, and ACTH levels can be measured in plasma. In yet other cases, different samples of the same type are used to measure the levels. Methods for measuring cortisol levels are known to those in the art. Useful assays include immunoassays, e.g., competitive immunoassay, radioimmunoassay, immunofluorometric enzyme assay, and ELISA, competitive protein-binding assay and mass spectrometry, e.g., high-performance liquid chromatography/triple quadrupole-mass spectrometry (LC-MS/MS). Commercial kits for measuring cortisol in sample are available from, e.g., Beckman-Coulter, Seimens, Roche Diagnostics, and the like. Non-limiting examples of an immunoassay include an ADVIA Centaur® Cortisol assay (Siemens Healthcare Global), […] i2000SR cortisol (Abbott), Immulite® 2000 Cortisol assay (Siemans Healthcare Global; #L2KCO2), Vitros® ECi Cortisol assay (Ortho Clinical Diagnostics; #107 4053), and Elecsys® Cortisol Immunoassay (Roche Molecular Diagnostics; #11875116160).
Cortisol levels were measured in Cushing's syndrome patients who were administered doses of the heteroaryl-ketone fused azadecalin compound relacorilant. Urinary Free Cortisol (UFC) was measured in these patients over the course of a 12 week study in which ascending doses of relacorilant were administered.

Data set [2] relates to Cushing's syndrome patients. Put plainly: 24-hr Urinary Free Cortisol, Group 2, 16 week ascending-dose relacorilant study.
From the text: as §1
Cortisol levels were measured in a second group of Cushing's syndrome patients who were administered doses of relacorilant. Urinary Free Cortisol (UFC) was measured in these patients over the course of a 16 week study in which ascending doses of relacorilant were administered.

The subject of data set [3] is Cushing's syndrome patients. In words: Mean ACTH levels in relacorilant Groups 1 and 2. The source says:
Cortisol levels obtained for individual patients and the UFC tabular summary (Tables 1 and 2 above) show no significant changes from baseline in UFC.

Data set [4] relates to Cushing's syndrome patients. In words: Drug-induced hypokalemia in Phase 2 study of relacorilant.
Data set [5] has as its system ectopic tumor (somatostatin receptor expression). Put plainly: Indium octreoscan imaging of ectopic tumor before and after relacorilant treatment. As to conditions: one patient; oral once daily 250, 300, 350, 400 mg/day, four weeks each; 111Indium octreotide. Here is the method: In a further attempt to image, and to localize, the tumor in the patient, an indium octreoscan image (patient was administered Octreotide radiolabeled with ^111Indium prior to imaging) was obtained, in which a dot was seen which enabled localization of the tumor to the right lung/mediastinum region of the patient.
Relacorilant was then orally administered to the patient once per day for four months. The patient was administered 250 milligrams (mg) per day of relacorilant for four weeks, followed by 300 mg/day relacorilant for the next four weeks, followed by 350 mg/day relacorilant for a further four weeks, and then was administered 400 mg relacorilant for another four weeks.
The indium octreoscan image of FIG. 2 provides a much improved and enhanced image of the tumor in the patient as compared to the image of FIG. 1. It is believed that the improvement in the indium octreoscan image of FIG. 2 as compared to the image shown in FIG. 1 was due to increased somatostatin receptor expression, e.g., due to increased sst2 receptor expression, as compared to that expression prior to the relacorilant treatment.

The source of these data is patent publication US12290551B2, “Methods for imaging and treatment of somatostatin-receptor positive tumors” (Corcept Therapeutics Incorporated, priority 2018, dated 2025).

As to `Cn1cc(S(=O)(=O)N2CCC3=Cc4c(cnn4-c4ccc(F)cc4)C[C@]3(C(=O)c3cc(C(F)(F)F)ccn3)C2)cn1` [relacorilant, (R)-(1-(4-fluorophenyl)-6-((1-methyl-1H-pyrazol-4-yl)sulfonyl)-4,4a,5,6,7,8-hexahydro-1H-pyrazolo[3,4-g]isoquinolin-4a-yl)(4-(trifluoromethyl)pyridin-2-yl)methanone], the figures for the “change in cortisol levels” value in data set [1] and in data set [1] (listed as Relacorilant) were “does not lead to significant increases in cortisol levels” and “no increases in cortisol concentrations”, respectively. Further, the “Mean 24-hr UFC” value was 151.8 µg/day in data set [1] (relacorilant 100 mg, Wk 2); 157.0 µg/day in data set [1] (relacorilant 100 mg, Wk 4); 145.3 µg/day in data set [1] (relacorilant 150 mg, Wk 6); 134.9 µg/day in data set [1] (relacorilant 150 mg, Wk 8); 180.9 µg/day in data set [1] (relacorilant 200 mg, Wk 10); 211.6 µg/day in data set [1] (relacorilant 200 mg, Wk 12). Further, the “Mean 24-hr UFC” value in data set [2] (relacorilant 250 mg, Wk 2, baseline 228.1) was found to be 252.1 µg/day; in data set [2] (relacorilant 250 mg, Wk 4, baseline 228.1) it was 218.2 µg/day; in data set [2] (relacorilant 300 mg, Wk 6, baseline 228.1), 257.4 µg/day; in data set [2] (relacorilant 300 mg, Wk 8, baseline 228.1) it was 149.1 µg/day; in data set [2] (relacorilant 350 mg, Wk 10, baseline 228.1), 185.4 µg/day; in data set [2] (relacorilant 350 mg, Wk 12, baseline 228.1), 249.0 µg/day. Also, the “Mean 24-hr UFC” value in data set [2] (relacorilant 400 mg, Wk 14, baseline 228.1) worked out at 194.1 µg/day; in data set [2] (relacorilant 400 mg, Wk 16, baseline 228.1), 203.1 µg/day. The “mean ACTH” value in data set [3] (Group 1, Week 12, SD 10.34, Baseline 11.02±8.04) amounted to 14.68 pmol/L; in data set [3] (Group 2, Week 16 or last-observed, SD 10.72, Baseline 12.79±8.36), 15.56 pmol/L. Besides, the “change in ACTH” value in data set [3] (baseline to end of treatment) is “only modest increases in ACTH”. Also, in data set [4], the drug-induced hypokalemia entry is listed as “lack of drug-induced hypokalemia”. Moreover, in data set [5], the “effect on indium octreoscan images of the ectopic tumor” value is listed as “enhanced”.
